C[C@]12CCC3=C4CCC(=O)C=C4CC[C@H]3[C@@H]1CC[C@@]2(O)CC#N
solubility (mole fraction)
Conditions | 273.15 K | 278.15 K | 283.15 K | 288.15 K | 293.15 K | 298.15 K | 303.15 K | 308.15 K | 313.15 K | 318.15 K
in DMF | 0.0262 | 0.0275 | 0.0293 | 0.0303 | 0.0318 | 0.0333 | 0.0343 | 0.0354 | 0.0364 | 0.0374
in MTBE | 0.000258 | 0.000281 | 0.000302 | 0.000327 | 0.000355 | 0.000384 | 0.000416 | 0.00045 | 0.000489 | 0.000531
in THF | 0.0106 | 0.0115 | 0.0125 | 0.0138 | 0.0148 | 0.0158 | 0.0172 | 0.0182 | 0.0192 | 0.0201
in acetone | 0.00464 | 0.00495 | 0.00536 | 0.00576 | 0.00616 | 0.00667 | 0.00717 | 0.00777 | 0.00828 | 0.00899
in acetonitrile | 0.00125 | 0.00149 | 0.00172 | 0.00202 | 0.00232 | 0.00273 | 0.00313 | 0.00363 | 0.00414 | 0.00475
in ethanol | 0.000981 | 0.00122 | 0.00152 | 0.00189 | 0.00233 | 0.00287 | 0.00353 | 0.00434 | 0.00524 | 0.00637
in ethyl acetate | 0.00145 | 0.00167 | 0.00192 | 0.00215 | 0.00242 | 0.00273 | 0.00304 | 0.00338 | 0.00374 | 0.00414
in isopropanol | 0.000738 | 0.000899 | 0.0011 | 0.00131 | 0.00158 | 0.00192 | 0.00227 | 0.00273 | 0.00323 | 0.00378
in methanol | 0.00182 | 0.00209 | 0.00235 | 0.00269 | 0.00303 | 0.00344 | 0.00384 | 0.00434 | 0.00493 | 0.00553
in n-propanol | 0.00136 | 0.00161 | 0.00187 | 0.00219 | 0.00256 | 0.00298 | 0.00345 | 0.00399 | 0.00462 | 0.00532
in water | 5.99e-06 | 6.47e-06 | 6.99e-06 | 7.58e-06 | 8.19e-06 | 8.88e-06 | 9.62e-06 | 1.04e-05 | 1.13e-05 | 1.23e-05

Source: BigSolDB 2.1
